Laboratory results published in publication PMC7408547, “Bivalent Inhibitor with Selectivity for Trimeric MMP-9 Amplifies Neutrophil Chemotaxis and Enables Functional Studies on MMP-9 Proteoforms” (Cells, 2020).

Test system: secretions of fMLF stimulated human granulocytes
Experiment: Gelatinolysis in secretions of fMLF stimulated human granulocytes
Format: biochemical
Conditions: neutrophil elastase inhibitor 20 µM; depending on the donor (n = 4)
Method: To determine the inhibition of gelatinolytic activity, we used a previously optimized gelatin degradation assay. Activated MMP-9, activated MMP-2, neutrophil elastase or supernatants of stimulated neutrophils, were incubated with different concentrations of inhibitors and incubated for 30 min at 37 °C. Next, dye-quenched gelatin (DQ™-gelatin, Invitrogen, Carlsbad, CA, USA) was added at a final concentration of 2.5 µg/mL and the increase in fluorescence over time was measured with the CLARIOstar microplate reader (BMG Labtech, Ortenberg, Germany). For other MMPs, the OmniMMP substrate peptide (Mca-PLGL-Dpa-AR-NH2, cat. no. BML-P126-0001, Enzo Life Sciences, Farmingdale, NY, USA) was used at a final concentration of 2.5 µg/mL. For ADAM17 the fluorogenic peptide Mca-PLAQAV-Dpa-RSSSR-NH2 (ES003, R & D systems, Minneapolis, MO, USA) and for neutrophil elastase the fluorogenic substrate MeOSuc-AAPV-AMC (cat. no. 324740, Merck Millipore, Darmstadt, Germany) were used. Proteolytic activity was determined by linear regression of the fluorescence curve and the percentage inhibition was calculated through comparison with the positive control (no inhibitors). When testing supernatants from human neutrophils, the assay was performed in the presence of 20 µM neutrophil elastase inhibitor (Elastase Inhibitor IV, Calbiochem, Darmstadt, Germany).
Neutrophils were isolated from fresh blood from healthy donors, via density gradient centrifugation as described. To obtain neutrophil degranulate, neutrophils were suspended in degranulation buffer (120 mM NaCl, 15 mM CaCl2, 20 mM Tris/HCl pH 7.5) at a concentration of 10^7 cells/mL and degranulation was induced by incubating neutrophils with N-formyl-methionyl-leucyl-phenylalanine (fMLF) (final concentration 0.5 µM) for 20 min at 37 °C as previously described. Next, the supernatant was collected by centrifugation. For fresh blood donations, all subjects gave written informed consent in accordance with the Declaration of Helsinki.

For `Cc1cccc(C(=O)n2nc(C#N)c3ccccc32)c1` [neutrophil elastase inhibitor, reference compound], the “percentage of gelatinolytic activity inhibited” value was 84–97%.
